Assay results published in patent US10244756B2, “Fungicidal N-cycloalkyl-N-{[ortho-(1-substituted-cycloalkyl)heteroaryl]methyl}(thio)carboxamides” (Bayer CropScience Aktiengesellschaft, priority 2015, dated 2019).

How the values were obtained:
[1] = test system: Puccinia recondita; test: In vivo preventive test on Puccinia recondita (brown rust on wheat); conditions: Table A2, dose 100 ppm, evaluated 11 days after inoculation
Procedure: (§1) Example A: In Vivo Preventive Test on Puccinia Recondita (Brown Rust on Wheat) Solvent: 5% by volume of Dimethyl sulfoxide • 10% by volume of Acetone Emulsifier: 1 μL of Tween® 80 per mg of active ingredient The active ingredients are made soluble and homogenized in a mixture of Dimethyl sulfoxide/Acetone/Tween® 80 and then diluted in water to the desired concentration. The young plants of wheat are treated by spraying the active ingredient prepared as described above. Control plants are treated only with an aqueous solution of Acetone/Dimethyl sulfoxide/Tween® 80. After 24 hours, the plants are contaminated by spraying the leaves with an aqueous suspension of Puccinia recondita spores. The contaminated wheat plants are incubated for 24 hours at 20° C. and at 100% relative humidity and then for 10 days at 20° C. and at 70-80% relative humidity. The test is evaluated 11 days after the inoculation. 0% means an efficacy which corresponds to that of the control plants while an efficacy of 100% means that no disease is observed.

[2] = test system: Uromyces appendiculatus; test: In vivo preventive test on Uromyces appendiculatus (bean rust); conditions: Table B2, dose 100 ppm, evaluated 11 days after inoculation
Procedure: as §1, with “B:” for “A:”, “Uromyces Appendiculatus (Bean Rust)” for “Puccinia Recondita (Brown Rust on Wheat)”, “bean” for “wheat”, “Uromyces appendiculatus” for “Puccinia recondita”

[3] = logP by HPLC on reversed-phase column (C 18), EEC Directive 79/831 Annex V.A8; format: physicochemical; conditions: reversed-phase HPLC column (C 18), 40° C., 0.1% aqueous formic acid and acetonitrile, gradient 10% to 90% acetonitrile
Procedure: In table 1, the logP values were determined in accordance with EEC Directive 79/831 Annex V.A8 by HPLC (High Performance Liquid Chromatography) on a reversed-phase column (C 18), using the method described below: Temperature: 40° C.; Mobile phases: 0.1% aqueous formic acid and acetonitrile; linear gradient from 10% acetonitrile to 90% acetonitrile. Calibration was carried out using unbranched alkan-2-ones (comprising 3 to 16 carbon atoms) with known logP values (determination of the logP values by the retention times using linear interpolation between two successive alkanones). lambda-max-values were determined using UV-spectra from 200 nm to 400 nm and the peak values of the chromatographic signals.

chromatographic logP [3] | SMILES | Efficacy [1] | Efficacy [2]
 | CC(C)c1ncc(Cl)cc1CN(C(=O)c1cn(C)nc1C(F)F)C1CC1 [CMP1, N-[(5-chloro-2-isopropylpyridin-3-yl)methyl]-N-cyclopropyl-3-(difluoromethyl)-1-methyl-1H-pyrazole-4-carboxamide] | 0% | 0%
3.39 | Cc1cc(C2(Cl)CC2)c(CN(C(=O)c2cn(C)nc2C(F)F)C2CC2)s1 [Example I.05, N-{[3-(1-chlorocyclopropyl)-5-methyl-2-thienyl]methyl}-N-cyclopropyl-3-(difluoromethyl)-1-methyl-1H-pyrazole-4-carboxamide] |  | 
